The structures appear in SMILES notation. “And” between values parts separate entries of the source, which are not always exact repeats. Equal values may be shown once. A value given as a limit tells only on which side of the number the result lay.

Assay [1] relates to multiple myeloma MM.1S cell line. The assay is described as follows: Cell viability (CCK-8), multiple myeloma MM.1S. To be noted: MM.1S cells, 4 days, CCK-8, 50% inhibition of cell growth. The class given is cell-based. Here is the method:
3. Determination of cell viability of the compound
The sample to be tested was dissolved with 100% dimethyl sulfoxide to prepare a 20 mM stock solution of the compound, which was diluted with 100% dimethyl sulfoxide to the highest compound concentration required for the experiment (2.5 mM).
First, 145 uL of a complete cell culture medium was added to wells B1-G1 of a 96-well flat-bottomed tansparent cell culture plate, and 100 uL of the complete medium was added to wells B2-G12, respectively. Then, 5 uL of the 2.5 mM solution of the compound was added to wells B1-D1 and E1-G1 respectively, and then diluted gradiently by 3-folds to B12-D12 and E12-G12 in sequence. Finally, 50 uL of the solution of the cells to be tested was added to each well, with about 3000-5000 cells per well, and a total volume of 150 uL per well.
In the experiment, in addition to the tested compound, two other control groups were set up: 1) a control group adding the cells and the complete medium, but without adding the compound; 2) a control group adding the complete medium only, without adding the cells and the compound. The 96-well plate was placed in a 37° C. cell culture incubator containing 5% carbon dioxide for 4 days, added with 15 uL of a CCK-8 reagent per well, and then incubated at 37° C. for 2-4 hours. The 96-well plate was read on a TECAN microplate reader, and the absorbance value at 450 nm wavelength was taken.
The effect of different concentrations of the compound on cell viability was calculated by the following equation: [absorption value of the experimental group−absorption value of pure cell culture medium without the cells or the compound]/[absorption value of the control group with the tumor cells but no testing compound−absorption value of pure cell culture medium without the cell or the compound]×100%.
The above data were precessed by software, and the IC50 value was the concentration of the compound corresponding to the 50% inhibition rate of cell growth.
Based on the above test method of the compound on cell viability, a variety of […] cancer cell lines were tested, using multiple myeloma MM.1S, breast cancer MDA-MB-231 and leukemia MV4-11 cell lines as exemples. Using this test method, the IC50 values of partial compounds in the examples of the present invention measured in multiple myeloma MM.1S, breast cancer MDA-MB-231 cell lines and leukemia MV4-11 cell lines were shown in Table 2.

Another assay addresses BRD4 BD2 protein (Homo sapiens (Human), UniProt O60885). Put plainly: Fluorescence polarization binding affinity (Ki) with BRD4 BD2 protein. To be noted: fluorescence polarization; Ki calculated from IC50.
The next assay addresses BRD4 BD1 protein (Homo sapiens (Human), UniProt O60885). The assay is described as follows: Fluorescence polarization binding affinity (Ki) with BRD4 BD1 protein. To be noted: fluorescence polarization; Ki calculated from IC50.

`Cc1nnn2c1-c1ccc(-c3cnn(C)c3)cc1C(Nc1cccc(O)c1)CC2` (stereo not shown) [LB171, 3-((1-methyl-9-(1-methyl-1H-pyrazol-4-yl)-6,7-dihydro-5H-benzo[c][1,2,3]triazolo[1,5-a]azepin-7-yl)amino)phenol]: the 50% inhibitory concentration (IC50) came out at 22.8 nM in assay [1] (Homo sapiens, MM1.S, 96 h) and 20.8 nM in assay [1]. Further, the values for the inhibition constant (Ki) on BRD4 BD2 protein and on BRD4 BD1 protein were 7.06 nM and 26.1 nM, respectively.
The molecule `COc1ccc2c(c1)C(Nc1ccc(C)cc1)CCc1onc(C)c1-2` (stereo not shown) [BB188, 8-methoxy-1-methyl-N-(p-tolyl)-5,6-dihydro-4H-benzo[6,7]cyclohepta[1,2-d]isoxazol-6-amine] had a concentration for half-maximal inhibition (IC50) in assay [1] (Homo sapiens, MM1.S, 96 h) of 805 nM. For the same molecule, the Ki is 41.4 nM at BRD4 BD2 protein and 94.2 nM at BRD4 BD1 protein.
In turn, `Cc1noc2c1-c1ccc(-c3cn[nH]c3)cc1C(Nc1ccc(Cl)cc1)CC2` (stereo not shown) [LA108, N-(4-chlorophenyl)-1-methyl-8-(1H-pyrazol-4-yl)-5,6-dihydro-4H-benzo[6,7]cyclohepta[1,2-d]isoxazol-6-amine] showed an IC50 in assay [1] (Homo sapiens, MM1.S, 96 h) of 30.2 nM. Also, the inhibitory constant (Ki) was 31.7 nM on BRD4 BD2 protein and 80.5 nM on BRD4 BD1 protein.
For `Cc1nnn2c1-c1ccc(-c3cnn(C)c3)cc1C(Nc1cc(C3CC3)nn1C)CC2` (stereo not shown) [BE130, N-(3-cyclopropyl-1-methyl-1H-pyrazol-5-yl)-1-methyl-9-(1-methyl-1H-pyrazol-4-yl)-6,7-dihydro-5H-benzo[c][1,2,3]triazolo[1,5-a]azepin-7-amine], in that order: 171 nM, 29.9 nM and 139 nM.
Turning to `COc1ccc(NC2CCc3onc(C)c3-c3ccc(OC)cc32)cc1` (stereo not shown) [FA01, 8-methoxy-N-(4-methoxyphenyl)-1-methyl-5,6-dihydro-4H-benzo[6,7]cyclohepta[1,2-d]isoxazol-6-amine], the IC50 in assay [1] (Homo sapiens, MM1.S, 96 h) is 559 nM. Besides, the inhibition constant (Ki) at BRD4 BD2 protein was 105 nM; on BRD4 BD1 protein, 169 nM.
`Cc1nnn2c1-c1ccc(-c3cnn(C)c3)cc1C(Nc1ccc(C#N)cc1)CC2` (stereo not shown) [LC18, 4-((1-methyl-9-(1-methyl-1H-pyrazol-4-yl)-6,7-dihydro-5H-benzo[c][1,2,3]triazolo[1,5-a]azepin-7-yl)amino)benzonitrile] displayed an IC50 in assay [1] (Homo sapiens, MM1.S, 96 h) of 4.7 nM. For the same molecule, the values for the Ki on BRD4 BD2 protein and at BRD4 BD1 protein were 15.2 nM and 34.6 nM, respectively.
For `Cc1nnn2c1-c1ccc(C3=CCN(C(C)C)CC3)cc1C(Nc1cccc(Cl)c1)CC2` (stereo not shown) [BH32, N-(3-chlorophenyl)-9-(1-isopropyl-1,2,3,6-tetrahydropyridin-4-yl)-1-methyl-6,7-dihydro-5H-benzo[c][1,2,3]triazolo[1,5-a]azepin-7-amine 2,2,2-trifluoroacetate], in assay [1] (Homo sapiens, MM1.S, 96 h), the IC50 came out at 119 nM. For the same molecule, the Ki is 9.75 nM at BRD4 BD2 protein and 525 nM on BRD4 BD1 protein.
In the case of `Cc1nnn2c1-c1ccc(-c3ccc4c(c3)OCO4)cc1C(Nc1ccc(Cl)cc1)CC2` (stereo not shown) [RB11, 9-(benzo[d][1,3]dioxo1-5-yl)-N-(4-chlorophenyl)-1-methyl-6,7-dihydro-5H-benzo[c][1,2,3]triazolo[1,5-a]azepin-7-amine], the IC50 in assay [1] (Homo sapiens, MM1.S, 96 h) amounted to 323 nM. Further, the Ki was 12.9 nM at BRD4 BD2 protein and 89.9 nM at BRD4 BD1 protein.
As for `Cc1nnn2c1-c1ccc(-c3cn[nH]c3)cc1C(Nc1ccc(Cl)cc1)CC2` (stereo not shown) [RB07, N-(4-chlorophenyl)-1-methyl-9-(1H-pyrazol-4-yl)-6,7-dihydro-5H-benzo[c][1,2,3]triazolo[1,5-a]azepin-7-amine], the midpoint of inhibition in assay [1] (Homo sapiens, MM1.S, 96 h), the IC50, lay at 13.6 nM. In addition, the inhibition constant Ki is 19.8 nM at BRD4 BD2 protein and 51.2 nM on BRD4 BD1 protein.
In the case of `CC(=O)N1CC=C(c2ccc3c(c2)C(Nc2ccc(Cl)cc2)CCn2nnc(C)c2-3)CC1` (stereo not shown) [LD19, 1-(4-(7-((4-chlorophenyl)amino)-1-methyl-6,7-dihydro-5H-benzo[c][1,2,3]triazolo[1,5-a]azepin-9-yl)-3,6-dihydropyridin-1(2H)-yl)ethan-1-one], the 50% inhibitory concentration (IC50) in assay [1] (Homo sapiens, MM1.S, 96 h) is under 1 nM. Besides, the Ki was 9.67 nM on BRD4 BD2 protein and 38.7 nM on BRD4 BD1 protein.
In turn, `Cc1nnn2c1-c1ccc(-c3cncnc3)cc1C(Nc1ccc(Cl)cc1)CC2` (stereo not shown) [RB06, N-(4-chlorophenyl)-1-methyl-9-(pyrimidin-5-yl)-6,7-dihydro-5H-benzo[c][1,2,3]triazolo[1,5-a]azepin-7-amine] registered an IC50 in assay [1] (Homo sapiens, MM1.S, 96 h) of 53.2 nM. For the same molecule, the figures for the inhibition constant (Ki) on BRD4 BD2 protein and at BRD4 BD1 protein were 15.4 nM and 129 nM, respectively.
The molecule `Cc1nnn2c1-c1ccc(-c3ccncc3)cc1C(Nc1ccc(Cl)cc1)CC2` (stereo not shown) [RA188, N-(4-chlorophenyl)-1-methyl-9-(pyridin-4-yl)-6,7-dihydro-5H-benzo[c][1,2,3]triazolo[1,5-a]azepin-7-amine] had an IC50 in assay [1] (Homo sapiens, MM1.S, 96 h) of 8.54 nM. The Ki at BRD4 BD2 protein was 17.1 nM; at BRD4 BD1 protein, 73.7 nM.
For `Cc1nnn2c1-c1ccc(-c3cnn(C)c3)cc1C(Nc1ccc(CN(C)C)cc1)CC2` (stereo not shown) [LB138, N-(4-((dimethylamino)methyl)phenyl)-1-methyl-9-(1-methyl-1H-pyrazol-4-yl)-6,7-dihydro-5H-benzo[c][1,2,3]triazolo[1,5-a]azepin-7-amine], in that order: 961 nM, 203 nM and 1040 nM.
`CC(=O)N1CC=C(c2ccc3c(c2)C(Nc2ccc(F)c(Cl)c2)CCn2nnc(C)c2-3)CC1` (stereo not shown) [LD77, 1-(4-(7-((3-chloro-4-fluorophenyl)amino)-1-methyl-6,7-dihydro-5H-benzo[c][1,2,3]triazolo[1,5-a]azepin-9-yl)-3,6-dihydropyridin-1(2H)-yl)ethan-1-one] registered a half-maximal inhibitory concentration (IC50) in assay [1] (Homo sapiens, MM1.S, 96 h) of 1.86 nM. In addition, the inhibition constant Ki is 3.97 nM and 3.16 nM at BRD4 BD2 protein; 81.7 nM at BRD4 BD1 protein.
`Cc1nnn2c1-c1ccc(-c3cnn(C)c3)cc1C(Nc1cccc(CN(C)C)c1)CC2` (stereo not shown) [LC31, N-(3-((dimethylamino)methyl)phenyl)-1-methyl-9-(1-methyl-1H-pyrazol-4-yl)-6,7-dihydro-5H-benzo[c][1,2,3]triazolo[1,5-a]azepin-7-amine] registered a half-maximal inhibitory concentration (IC50) in assay [1] (Homo sapiens, MM1.S, 96 h) of 27.9 nM. Moreover, the inhibition constant (Ki) at BRD4 BD2 protein was 20.9 nM; at BRD4 BD1 protein, 92.6 nM.
As to `Cc1nnn2c1-c1ccc(C3=CCNCC3)cc1C(Nc1cccc(OCCO)c1)CC2` (stereo not shown) [LC56, 2-(3-((1-methyl-9-(1,2,3,6-tetrahydropyridin-4-yl)-6,7-dihydro-5H-benzo[c][1,2,3]triazolo[1,5-a]azepin-7-yl)amino)phenoxy)ethan-1-ol 2,2,2-trifluoroacetate], the IC50 in assay [1] (Homo sapiens, MM1.S, 96 h) is 2890 nM. Besides, the results for the Ki at BRD4 BD2 protein and on BRD4 BD1 protein were 70.3 nM and 1520 nM, respectively.
In assay [1] (Homo sapiens, MM1.S, 96 h), `Cc1nnn2c1-c1ccc(-c3ccc(N)nc3)cc1C(Nc1ccc(Cl)cc1)CC2` (stereo not shown) [RB03, 9-(6-aminopyridin-3-yl)-N-(4-chlorophenyl)-1-methyl-6,7-dihydro-5H-benzo[c][1,2,3]triazolo[1,5-a]azepin-7-amine] showed an IC50 of 16.9 nM. Further, the inhibition constant Ki on BRD4 BD2 protein was 16.6 nM; on BRD4 BD1 protein, 36.9 nM.
For the molecule `CNC(=O)Cc1ccc(NC2CCn3nnc(C)c3-c3ccc(-c4cnn(C)c4)cc32)cc1` (stereo not shown) [LB42, N-methyl-2-(4-((1-methyl-9-(1-methyl-1H-pyrazol-4-yl)-6,7-dihydro-5H-benzo[c][1,2,3]triazolo[1,5-a]azepin-7-yl)amino)phenyl)acetamide], the midpoint of inhibition in assay [1], the IC50, lay at 16 nM. The inhibition constant Ki on BRD4 BD2 protein was 8.19 nM; at BRD4 BD1 protein, 34.5 nM.
For the molecule `Cc1nnn2c1-c1ccc(-c3cnn(C)c3)cc1C(Nc1cccc(OCCO)c1)CC2` (stereo not shown) [LB77, 2-(3-((1-methyl-9-(1-methyl-1H-pyrazol-4-yl)-6,7-dihydro-5H-benzo[c][1,2,3]triazolo[1,5-a]azepin-7-yl)amino)phenoxy)ethanol], in assay [1] (Homo sapiens, MM1.S, 96 h), it took 71.7 nM to reach half-maximal inhibition (IC50). Further, the Ki at BRD4 BD2 protein is 6 nM; at BRD4 BD1 protein it was 99.9 nM.

Values taken from patent publication US12286435B2, “Compound having benzo seven-membered ring structure, preparation method therefor, and use thereof” (BIONNA (BEIJING) MEDICAL TECHNOLOGY CO., LTD., priority 2019, dated 2025).
